“Also recorded” adds a separate entry of the source.
Key:
[1] = test system: human smooth muscle cells; experiment: In vitro potency: growth suppression of smooth muscle cell cultures (human); format: cell-based; conditions: FIG. 2, over five orders of magnitude concentration
Protocol: The ability of the cell culture to reproduce was assessed after drug exposure by addition of a colored reagent which causes a color change in the surviving cells, followed by cell cytometry. The ability of the cells to migrate was assessed when cells from the culture moved through a porous membrane barrier adjacent the culture, and again by staining and cell cytometry. The results of these tests are shown in FIG. 2 for human smooth muscle cells.

[2] = test system: porcine smooth muscle cells; experiment: In vitro potency: growth suppression of smooth muscle cell cultures (porcine); format: cell-based; conditions: over five orders of magnitude concentration
[3] = In vitro release rate of drug from polymer-coated stents into ethanol-water bath; format: physicochemical; conditions: at 96 hours; unstirred ethanol-water bath at 37° C.; poly-dl-lactic acid coated stents, average drug load 230 μg
Protocol: The in vitro release rate of drug from the stents into an unstirred, ethanol-water bath at 37° C. was measured and the results are shown in FIG. 4. The six curves in FIG. 4 correspond to six stents carrying a poly-dl-lactic acid polymer loaded with 42-O-(2-ethoxyethyl) rapamycin. Each stent held between about 224–235 μg of drug, with an average drug load of 230 μg. The polymer-drug coated stents were sterilized at 25 KGy or at 27.5 KGy prior to measuring the release rate.
100 mg poly (dl-lactide) was dissolved into 2 mL acetone at room temperature. 5 mg 42-O-(2-ethoxyethyl) rapamycin was placed in a vial and 100 μL lactide solution added. A microprocessor-controlled syringe pump was used to precision dispense 4.5 μL of the drug containing poly-dl-lactide solution to the outer surface of a metal S-Stent (available from Biosensors International Inc, Newport Beach, Calif.).

[4] = test system: pig coronary artery (restenosis after overstretch injury); experiment: Pig coronary artery overstretch injury model with drug-eluting stents; format: in vivo; conditions: for Diameter stenosis: lower score indicates higher efficacy
Protocol: In another study, stents carrying 42-O-(2-ethoxyethyl) rapamycin in the form of a polymer (poly-dl-lactic acid) coating were prepared for insertion into pigs with a vessel overstretch injury to the coronary artery. Comparative and control stents includes bare metal stents, stents having a polymer coating of poly-dl-lactic acid absent drug, stents carrying rapamycin in a poly-dl-lactic acid polymer coating, and stents carrying everolimus in a poly-dl-lactic acid polymer coating. The stents were inserted into vessels which seriously injured (averaging approximately 36% overstretch injury of the vessel) using an angioplasty balloon. […] In this way, it was possible to assess the relative effectiveness of the various test compounds presented to the vessels on the same metal stent/polymer platform. At the time of insertion, the extent of overstretch was recorded as a percent balloon/artery (B/A) ratio.

[5] = test system: pig coronary arteries (restenosis); experiment: 30-day implantation of drug-eluting stents in pig coronary arteries (late loss vs injury score); conditions: 30 days in pig vessels; for intercept of the zero injury (late loss) / neointimal response to injury (slope of the regression line of late loss vs injury score): FIG. 10
Protocol: After preparation of the stents having a polymer-drug coating, they were implanted, as described in Example 5, into pigs for a thirty day period.
As described in Example 5, nine stents eluting 42-O-(2-ethoxyethyl) rapamycin from a polymer layer of poly-lactic acid were implanted in pigs and six control, bare metal stents were implanted. […] Quantitative coronary angiography was performed to measure the vessel lumen diameter immediately before and after stent placement and also 30 days later just prior to the follow-up angiogram taken at animal sacrifice. […] Percent stenosis (% stenosis) was determined from the measurements as: % Stenosis=[(RVD−MLD)/RVD]×100 where MLD is minimum lumen diameter and RVD is distal and proximal reference vessel diameter. The stent to artery ratio was also calculated from these measurements. The angiographic percent stenosis was calculated from the measurements of minimum lumen diameter obtained at the follow-up angiogram.
The photographs in FIGS. 5–9 permit determination via planimetry of the area of new tissue inside the stent after 30 days in vivo. The average thickness of new tissue formed inside the stent for each implant was determined and plotted against an injury score, also determined after the 30 day test period. A least-squares linear regression analysis of the data provides a sensitive method to compare the therapeutic benefit of different stent compositions.
The degree of vascular injury was also quantified by assigning an “injury score” based on the amount and length of tear of the different wall structures. The degree of injury was calculated as follows: • 0=intact internal elastic lamina • 1=ruptured internal elastic lamina with exposure to superficial medial layers (minor injury) • 2=ruptured internal elastic lamina with exposure to deeper medial layers (medial dissection) • 3=ruptured external elastic lamina with exposure to the adventitia. The mean injury score for each arterial segment was calculated by dividing the sum of injury scores at each stent strut site by the total number of stent struts in the proximal, middle, and distal stent sections using the method described by Schwartz et al. (J. Am. Coll. Cardiol., 19:267–274 (1992)).
After analysis of the late loss and injury scores, the average late loss as a function of injury score was plotted for the test stents in each animal. […] The stents were in place in the vessel for 30 days.
Three days prior to insertion of stents each animal received 650 mg aspirin, 500 mg ticlopidine daily, and 120 mg verapamil daily. Aspirin (325 mg) daily was given throughout the duration of the study. The animals were fasted twelve hours prior to stent placement.
For stent placement, each animal was immobilized with an intramuscular injection of 0.5 mg/kg acepromazine, 20 mg/kg ketamine, and 0.05 mg/kg atropine.

[6] = cited from earlier work
[7] = drug load 225 μg, polymer coat 225 μg, stent length 15 mm
[8] = high dose, drug load 325 μg, polymer coat 1300 μg, 6 months
[9] = high dose, drug load 325 μg, polymer coat 1300 μg, 28 days
[10] = low dose, drug load 180 μg, polymer coat 1300 μg
[11] = med. dose, drug load 275 μg, polymer coat 640–780 μg

Row | Structure (SMILES) | intercept of the zero injury (late loss) [5] [mm] | neointimal response to injury (slope of the regression line of late loss vs injury score) [5] [mm/injury score increment] | Mean lumen loss [4, 9] [mm] | Neointimal area [4, 9] [mm^2] | Diameter stenosis [4, 9] [%] | Mean lumen loss [4, 10] [mm] | Neointimal area [4, 10] [mm^2] | Diameter stenosis [4, 10] [%] | also measured
1 | CCOCCO[C@@H]1CC[C@@H](C[C@@H](C)[C@@H]2CC(=O)[C@H](C)/C=C(\C)[C@@H](O)[C@@H](OC)C(=O)[C@H](C)C[C@H](C)/C=C/C=C/C=C(\C)[C@@H](OC)C[C@@H]3CC[C@@H](C)[C@@](O)(O3)C(=O)C(=O)N3CCCC[C@H]3C(=O)O2)C[C@H]1OC [42-O-(2-ethoxyethyl) rapamycin] | 0.126 | 0.83 | – | – | – | – | – | – | inhibition of growth of smooth muscle cells [1]: effectively inhibited growth of smooth muscle cells; also recorded: inhibited cellular growth as effectively as 42-O-hydroxy heptyl rapamycin (diamonds) or rapamycin; inhibition of growth of smooth muscle cells [2]: effectively inhibited growth of smooth muscle cells; drug load released into the bath [3]: less than half of the drug load released; mean lumen late loss and percent diameter stenosis, comparison with the other stents ([4]; compared to rapamycin, everolimus, bare metal and polymer-coated stents): lowest mean lumen late loss and percent diameter stenosis; Mean lumen loss [4, 7]: 0.62 mm; Neointimal area [4, 7]: 1.30 mm^2; Diameter stenosis [4, 7]: 14.8%; neointimal thickness at 30 days (late loss), comparison with other stents ([5]; FIGS. 10-11): lower neointimal thickness at 30 days; also recorded: therapeutic effect when compared to bare, metal stents
2 | COC1CC2CCC(C)C(O)(O2)C(=O)C(=O)N2CCCCC2C(=O)OC(C(C)CC2CCC(OCCCCCCCO)C(OC)C2)CC(=O)C(C)C=C(C)C(O)C(OC)C(=O)C(C)CC(C)C=CC=CC=C1C (stereo not shown) [42-O-hydroxy heptyl rapamycin] | 0.130 | 0.126 | – | – | – | – | – | – | –
3 | CO[C@H]1C[C@@H]2CC[C@@H](C)[C@@](O)(O2)C(=O)C(=O)N2CCCC[C@H]2C(=O)O[C@H]([C@H](C)C[C@@H]2CC[C@@H](OCCO)[C@H](OC)C2)CC(=O)[C@H](C)/C=C(\C)[C@@H](O)[C@@H](OC)C(=O)[C@H](C)C[C@H](C)/C=C/C=C/C=C/1C [everolimus] | – | – | 0.84 | 3.54 | 38.0 | 1.54 | 3.41 | 53.0 | Mean lumen loss [4, 8]: 1.15 mm; Neointimal area [4, 8]: 4.18 mm^2; Diameter stenosis [4, 8]: 68.5%; Mean lumen loss [4, 11]: 0.85 mm; Neointimal area [4, 11]: 2.97 mm^2; Diameter stenosis [4, 11]: 45.0%
4 | CO[C@H]1C[C@@H]2CC[C@@H](C)[C@@](O)(O2)C(=O)C(=O)N2CCCC[C@H]2C(=O)O[C@H]([C@H](C)C[C@@H]2CC[C@@H](O)[C@H](OC)C2)CC(=O)[C@H](C)/C=C(\C)[C@@H](O)[C@@H](OC)C(=O)[C@H](C)C[C@H](C)/C=C/C=C/C=C/1C [rapamycin] | – | – | 1.07 | 3.75 | 55.0 | 0.99 | 2.80 | 43.0 | solubility in water [6]: 20 micrograms per milliliter

Source: patent US7220755B2, “42-O-alkoxyalkyl rapamycin derivatives and compositions comprising same” (Biosensors International Group, Ltd., priority 2003, dated 2007)
